Columns and labels:
Assay in all cases: Hexokinase Colorimetric Assay Kit, whole-cell extract, […] hexose
Type in all cases: biochemical
ScHxk2 [1] = molecular target: T1, ScHxk2 (Saccharomyces cerevisiae, UniProt P04807); conditions: relative to YlHxk1, absolute Km not given; extract 30 µg/mL protein in PBS pH 7.4; host hxk1 glk1
T1 construct: gene HXK2; full-length, untagged; pTEF overexpression in Y. lipolytica Po1d hxk1 glk1; whole-cell extract
T1 sequence (P04807 2-486): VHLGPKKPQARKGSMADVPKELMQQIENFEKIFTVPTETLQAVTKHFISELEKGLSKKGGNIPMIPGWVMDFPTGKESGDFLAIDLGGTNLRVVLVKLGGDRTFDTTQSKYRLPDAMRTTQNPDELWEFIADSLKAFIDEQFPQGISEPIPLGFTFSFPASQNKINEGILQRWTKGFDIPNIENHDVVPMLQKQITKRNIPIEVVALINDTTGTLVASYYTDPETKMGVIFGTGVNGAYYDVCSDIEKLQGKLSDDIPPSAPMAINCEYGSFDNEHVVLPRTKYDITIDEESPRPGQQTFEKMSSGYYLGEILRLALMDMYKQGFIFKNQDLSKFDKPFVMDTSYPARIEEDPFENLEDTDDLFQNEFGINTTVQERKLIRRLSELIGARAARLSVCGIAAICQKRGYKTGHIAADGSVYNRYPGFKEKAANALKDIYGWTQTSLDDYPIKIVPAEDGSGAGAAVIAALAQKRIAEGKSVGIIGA

YlHxk1 [2] = molecular target: T2, YlHxk1 (Yarrowia lipolytica, UniProt F2Z672, DEL155-182); conditions: relative to YlHxk1, absolute Km not given; extract 30 µg/mL protein in PBS pH 7.4; host hxk1 glk1
T2 construct: gene YALI0_B22308g; full-length, 534 residues, untagged; pTEF overexpression in Y. lipolytica Po1d hxk1 glk1; whole-cell extract; gene from W29 genomic DNA

YlHxk1 [3] = molecular target: T3, YlHxk1 (Yarrowia lipolytica, UniProt F2Z672, DEL7-15); conditions: relative to YlHxk1, absolute Km not given; extract 30 µg/mL protein in PBS pH 7.4; host hxk1 glk1
T3 construct: gene YALI0_B22308g; full-length, 534 residues, untagged; pTEF overexpression in Y. lipolytica Po1d hxk1 glk1; whole-cell extract; gene from W29 genomic DNA

YlHxk1 [4] = molecular target: T4, YlHxk1 (Yarrowia lipolytica, UniProt F2Z672); conditions: reference enzyme of the fold scale, no absolute Km of this study printed; otherwise same
T4 construct: gene YALI0_B22308g; full-length, 534 residues, untagged; pTEF overexpression in Y. lipolytica Po1d hxk1 glk1; whole-cell extract; gene from W29 genomic DNA
T4 sequence (F2Z672 1-534): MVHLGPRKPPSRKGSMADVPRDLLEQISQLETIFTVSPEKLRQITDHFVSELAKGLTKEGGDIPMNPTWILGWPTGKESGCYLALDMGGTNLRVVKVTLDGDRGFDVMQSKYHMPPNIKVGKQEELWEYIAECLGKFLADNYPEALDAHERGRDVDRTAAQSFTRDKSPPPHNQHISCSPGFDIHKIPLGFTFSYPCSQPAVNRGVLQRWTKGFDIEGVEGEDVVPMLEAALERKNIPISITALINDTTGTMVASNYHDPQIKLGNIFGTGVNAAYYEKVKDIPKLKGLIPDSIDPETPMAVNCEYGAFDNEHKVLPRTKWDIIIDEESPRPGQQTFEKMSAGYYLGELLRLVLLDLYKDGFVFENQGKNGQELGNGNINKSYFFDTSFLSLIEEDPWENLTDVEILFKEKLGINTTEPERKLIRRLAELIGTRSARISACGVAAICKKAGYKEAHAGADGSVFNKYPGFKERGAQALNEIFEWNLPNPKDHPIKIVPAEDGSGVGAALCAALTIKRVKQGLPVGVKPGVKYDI

YlHxk1 [5] = molecular target: T5, YlHxk1 (Yarrowia lipolytica, UniProt F2Z672, E500G); conditions: relative to YlHxk1, absolute Km not given; extract 30 µg/mL protein in PBS pH 7.4; host hxk1 glk1
T5 construct: gene YALI0_B22308g; full-length, 534 residues, untagged; pTEF overexpression in Y. lipolytica Po1d hxk1 glk1; whole-cell extract; gene from W29 genomic DNA

YlHxk1 [6] = molecular target: T5, YlHxk1; conditions: relative to YlHxk1, absolute Km not given; extract 30 µg/mL protein in PBS pH 7.4; host hxk1 glk1; remark: listed apart in the source
ScHxk2 [7] = molecular target: T1, ScHxk2; conditions: relative to YlHxk1, absolute Km not given; extract 30 µg/mL protein in PBS pH 7.4; host hxk1 glk1; remark: listed apart in the source
YlHxk1 [8] = molecular target: T3, YlHxk1; conditions: relative to YlHxk1, absolute Km not given; extract 30 µg/mL protein in PBS pH 7.4; host hxk1 glk1; remark: listed apart in the source
YlHxk1 [9] = molecular target: T2, YlHxk1; conditions: relative to YlHxk1, absolute Km not given; extract 30 µg/mL protein in PBS pH 7.4; host hxk1 glk1; remark: listed apart in the source

T5 sequence (F2Z672 entry or part of it E500G): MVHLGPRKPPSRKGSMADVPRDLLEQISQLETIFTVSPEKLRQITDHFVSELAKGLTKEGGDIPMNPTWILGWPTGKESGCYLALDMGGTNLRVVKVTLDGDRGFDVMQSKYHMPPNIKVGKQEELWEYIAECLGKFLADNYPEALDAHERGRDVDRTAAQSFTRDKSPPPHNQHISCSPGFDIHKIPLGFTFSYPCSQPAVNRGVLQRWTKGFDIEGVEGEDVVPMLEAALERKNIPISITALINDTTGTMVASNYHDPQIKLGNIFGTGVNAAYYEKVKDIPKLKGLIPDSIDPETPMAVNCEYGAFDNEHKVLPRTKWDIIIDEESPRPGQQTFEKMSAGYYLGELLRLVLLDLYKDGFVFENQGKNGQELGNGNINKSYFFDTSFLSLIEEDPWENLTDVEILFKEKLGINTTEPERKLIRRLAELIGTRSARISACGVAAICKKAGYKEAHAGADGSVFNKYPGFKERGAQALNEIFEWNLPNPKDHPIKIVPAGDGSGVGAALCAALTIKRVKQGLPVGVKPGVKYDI
T3 sequence (F2Z672 entry or part of it DEL7-15): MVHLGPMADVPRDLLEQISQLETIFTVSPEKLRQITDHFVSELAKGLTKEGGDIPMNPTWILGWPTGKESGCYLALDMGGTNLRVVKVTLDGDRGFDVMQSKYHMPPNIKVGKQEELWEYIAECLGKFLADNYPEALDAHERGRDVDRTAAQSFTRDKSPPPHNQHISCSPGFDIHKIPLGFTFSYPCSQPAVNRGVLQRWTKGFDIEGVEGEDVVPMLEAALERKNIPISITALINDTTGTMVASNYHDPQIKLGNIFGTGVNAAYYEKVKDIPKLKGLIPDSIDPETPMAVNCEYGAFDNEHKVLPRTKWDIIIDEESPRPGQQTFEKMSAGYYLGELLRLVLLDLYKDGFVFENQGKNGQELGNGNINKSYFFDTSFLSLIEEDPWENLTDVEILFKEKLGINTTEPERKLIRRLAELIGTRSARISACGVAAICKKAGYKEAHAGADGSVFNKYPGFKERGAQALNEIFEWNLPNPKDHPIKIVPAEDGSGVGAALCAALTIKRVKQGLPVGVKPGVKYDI
T2 sequence (F2Z672 entry or part of it DEL155-182): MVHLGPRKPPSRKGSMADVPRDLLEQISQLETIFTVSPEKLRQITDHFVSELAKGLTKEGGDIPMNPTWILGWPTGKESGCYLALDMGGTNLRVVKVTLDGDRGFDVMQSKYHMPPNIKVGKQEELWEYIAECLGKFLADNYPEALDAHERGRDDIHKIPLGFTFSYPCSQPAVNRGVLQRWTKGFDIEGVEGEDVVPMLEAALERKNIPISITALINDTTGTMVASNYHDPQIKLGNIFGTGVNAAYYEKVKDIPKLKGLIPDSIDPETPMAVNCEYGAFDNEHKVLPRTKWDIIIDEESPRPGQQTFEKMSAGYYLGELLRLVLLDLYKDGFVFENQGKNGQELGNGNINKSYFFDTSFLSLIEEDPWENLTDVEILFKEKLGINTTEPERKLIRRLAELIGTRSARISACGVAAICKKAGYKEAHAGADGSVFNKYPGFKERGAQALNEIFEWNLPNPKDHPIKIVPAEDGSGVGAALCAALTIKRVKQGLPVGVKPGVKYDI

Structure (SMILES)	relative hexokinase activity with 20 mM fructose (ScHxk2 [1])	hexokinase activity with 20 mM fructose, relative to YlHxk1 (YlHxk1 [2])	relative hexokinase activity on 20 mM fructose (YlHxk1 [3])	20 mM glucose (YlHxk1 [4])	relative hexokinase activity at 20 mM fructose (YlHxk1 [5])	relative hexokinase activity at 20 mM glucose (YlHxk1 [6])	20 mM glucose (ScHxk2 [7])	20 mM glucose (YlHxk1 [8])	20 mM glucose (YlHxk1 [9])
OCC1(O)OC[C@@H](O)[C@@H](O)[C@@H]1O (stereo partly shown) [fructose]	8.00 ± 0.76 fold vs YlHxk1	2.80 ± 0.28 fold vs YlHxk1	3.98 ± 0.67 fold vs YlHxk1	1.00 fold vs YlHxk1	0.53 ± 0.15 fold vs YlHxk1	–	–	–	–
OC[C@H]1OC(O)[C@H](O)[C@@H](O)[C@@H]1O (stereo partly shown) [glucose]	–	–	–	1.00 fold vs YlHxk1	–	2.50 ± 0.24 fold vs YlHxk1	1.22 ± 0.16 fold vs YlHxk1	0.18 ± 0.03 fold vs YlHxk1	2.05 ± 0.32 fold vs YlHxk1

Reference: PMC7979807, “A 37-amino acid loop in the Yarrowia lipolytica hexokinase impacts its activity and affinity and modulates gene expression” (Scientific Reports, 2021)
